Measured values reported in ChEMBL document CHEMBL5233262, “Anti-inflammatory activity of naturally occuring diarylheptanoids - A review” (Bioorg Med Chem, 2021).
Values after ≈ are worked out from the molar mass of the structure shown. Each block holds one compound with its values, some of them ahead of it.

How the values were obtained:
[1] = Antioxidant activity assessed as DPPH radical scavenging activity incubated for 30 mins by spectrophotometric analysis; format: functional
[2] = Antioxidant activity assessed as nitroblue tetrazolium superoxide radical scavenging activity by spectrophotometric analysis; format: functional
[3] = Antioxidant activity assessed as nitroblue tetrazolium superoxide radical scavenging activity incubated for 10 mins by spectrophotometric analysis; format: functional
[4] = test system: RAW264.7; test: Antiinflammatory activity in mouse RAW264.7 cells assessed as inhibition of LPS-induced NO production preincubated for 1 hrs followed by LPS stimulation and measured after 24 hrs by Griess reagent based analysis; format: functional, cell-based
[5] = test system: RAW264.7; test: Antiinflammatory activity in mouse RAW264.7 cells assessed as inhibition of LPS-induced NO production incubated for 24 hrs by Griess method; format: functional, cell-based; conditions: RAW264.7, 24 h
[6] = test system: RAW264.7; test: Antiinflammatory activity in mouse RAW264.7 cells assessed as inhibition of LPS-induced NO production incubated for 20 hrs by Griess method; format: functional, cell-based; conditions: RAW264.7, 20 h
[7] = test system: RAW264.7; test: Antiinflammatory activity in mouse RAW264.7 cells assessed as inhibition of LPS-induced NO production preincubated for 0.5 hrs followed by LPS stimulation and measured after 24 hrs by Griess reagent based analysis; format: functional, cell-based
[8] = Cytotoxicity against mouse RAW264.7 cells assessed as reduction in cell viability by MTT assay; format: toxicity, cell-based
[9] = test system: RAW264.7; test: Antiinflammatory activity in mouse RAW264.7 cells assessed as inhibition of IFN-gamma and LPS-induced NO production incubated for 24 hrs by Griess assay; format: functional, cell-based; conditions: RAW264.7, 24 h
[10] = test system: RAW264.7; test: Antiinflammatory activity against mouse RAW264.7 cells assessed as inhibition of IFN-gamma and LPS-induced COX2 production preincubated for 2 hrs followed by IFN-gamma and LPS stimulation and measured after 16 hrs by spectrophotometric analysis; format: functional, cell-based
[11] = test system: RAW264.7; test: Antiinflammatory activity in mouse RAW264.7 cells assessed as inhibition of LPS-induced NO production incubated for 24 hrs by Griess reagent based analysis; format: functional, cell-based; conditions: RAW264.7, 24 h
[12] = test system: RAW264.7; test: Antiinflammatory activity in mouse RAW264.7 cells assessed as inhibition of LPS-induced TNFalpha production preincubated for 1 hr followed by LPS stimulation and measured after 18 hrs by immunoassay; format: functional, cell-based
[13] = test system: RAW264.7; test: Antiinflammatory activity in mouse RAW264.7 cells assessed as inhibition of LPS-induced NF-kappaB activation incubated for 24 hrs by SEAP microplate reader analysis; format: functional, cell-based; conditions: RAW264.7, 24 h
[14] = Antiinflammatory activity in human HEK001 cells assessed as inhibition of TNF-alpha induced IL-8 production at […] incubated for 24 hrs by ELISA; format: functional; conditions: dose 7.5 µM
[15] = Antiinflammatory activity in human HEK001 cells assessed as inhibition of TNF-alpha induced PGE2 production at […] incubated for 24 hrs by ELISA; format: functional; conditions: dose 7.5 µM
[16] = Antiinflammatory activity in human HEK001 cells assessed as inhibition of TNF-alpha induced CCL7 production at […] incubated for 24 hrs by ELISA; format: functional; conditions: dose 7.5 µM
[17] = Antiinflammatory activity in human HEK001 cells assessed as inhibition of TNF-alpha induced NO production incubated for 24 hrs at […] by Griess reagent based analysis; format: functional; conditions: dose 7.5 µM
[18] = Antiinflammatory activity in human HEK001 cells assessed as inhibition of LPS induced IL-1beta production at […] incubated for 24 hrs by ELISA; format: functional; conditions: dose 7.5 µM
[19] = Antiinflammatory activity in human HEK001 cells assessed as inhibition of LPS induced IL-8 production at […] incubated for 24 hrs by ELISA; format: functional; conditions: dose 7.5 µM
[20] = Antiinflammatory activity in human HEK001 cells assessed as inhibition of LPS induced CCL17 production at […] incubated for 24 hrs by ELISA; format: functional; conditions: dose 7.5 µM
[21] = Antiinflammatory activity in human Keratinocytes assessed as inhibition of LPS induced IL-1beta production at […] incubated for 24 hrs by ELISA; format: functional; conditions: Keratinocyte, dose 7.5 µM
[22] = Antiinflammatory activity in human Keratinocytes assessed as inhibition of LPS induced CCL17 production at […] incubated for 24 hrs by ELISA; format: functional; conditions: Keratinocyte, dose 7.5 µM
[23] = target: Nuclear factor NF-kappa-B complex (Homo sapiens) (UniProt Q00653+P19838+Q04206); test: Inhibition of human NF-kappaB p65 binding to DNA in LPS-stimulated human keratinocytes at […] for 30 mins by ELISA; format: cell-based; conditions: Keratinocyte, dose 7.5 µM
[24] = Antiinflammatory activity in human Keratinocytes assessed as inhibition of LPS induced ERK production at […] incubated for 24 hrs by ELISA; format: functional; conditions: Keratinocyte, dose 7.5 µM
[25] = test system: Mus musculus; test: Antiinflammatory activity in Dermatophagoides farina induced atopic dermatitis like skin lesions NC/Nga mouse model assessed as inhibition of IL-4 level at 0.1 %,ip twice a week for 4 weeks by ELISA; format: functional
[26] = test system: Mus musculus; test: Antiinflammatory activity in Dermatophagoides farina induced atopic dermatitis like skin lesions NC/Nga mouse model assessed as inhibition of IL-5 level at 0.1 %,ip twice a week for 4 weeks by ELISA; format: functional
[27] = test system: Mus musculus; test: Antiinflammatory activity in Dermatophagoides farina induced atopic dermatitis like skin lesions NC/Nga mouse model assessed as inhibition of IL-4 level at 1 %,ip twice a week for 4 weeks by ELISA; format: functional
[28] = test system: Mus musculus; test: Antiinflammatory activity in Dermatophagoides farina induced atopic dermatitis like skin lesions NC/Nga mouse model assessed as inhibition of IL-5 level at 1 %,ip twice a week for 4 weeks by ELISA; format: functional
[29] = test system: Mus musculus; test: Antiinflammatory activity in Dermatophagoides farina induced atopic dermatitis like skin lesions NC/Nga mouse model assessed as inhibition of COX-2 expression level at 0.1 %,ip twice a week for 4 weeks by RT-PCR analysis; format: functional
[30] = test system: Mus musculus; test: Antiinflammatory activity in Dermatophagoides farina induced atopic dermatitis like skin lesions NC/Nga mouse model assessed as inhibition of iNOS expression level at 0.1 %,ip twice a week for 4 weeks by RT-PCR analysis; format: functional
[31] = test system: Mus musculus; test: Antiinflammatory activity in Dermatophagoides farina induced atopic dermatitis like skin lesions NC/Nga mouse model assessed as inhibition of COX-2 expression level at 1 %,ip twice a week for 4 weeks by RT-PCR analysis; format: functional
[32] = test system: Mus musculus; test: Antiinflammatory activity in Dermatophagoides farina induced atopic dermatitis like skin lesions NC/Nga mouse model assessed as inhibition of iNOS expression level at 1 %,ip twice a week for 4 weeks by RT-PCR analysis; format: functional
[33] = Antiinflammatory activity in mouse BMDM cells assessed as inhibition of LPS induced IL-1beta secretion at 5 uM; format: functional
[34] = test system: U-937; test: Antiinflammatory activity in PMA-stimulated human U-937 cells assessed as inhibition of TNFalpha secretion at 1 ug/ml by ELISA; format: functional
[35] = test system: U-937; test: Antiinflammatory activity in PMA-stimulated human U-937 cells assessed as inhibition of IL-1beta secretion at 1 ug/ml by ELISA; format: functional
[36] = test system: U-937; test: Antiinflammatory activity in PMA-stimulated human U-937 cells assessed as inhibition of IL-1beta protein expression at 1 ug/ml by western blot analysis; format: functional
[37] = test system: RAW264.7; test: Antiinflammatory activity in mouse RAW264.7 cells assessed as inhibition of LPS-induced NO production incubated for 20 hrs by Griess reagent based microplate reader analysis; format: functional, cell-based; conditions: RAW264.7, 20 h
[38] = test system: RAW264.7; test: Antiinflammatory activity in mouse RAW264.7 cells assessed as inhibition of LPS-induced iNOS expression at 25 uM; format: functional
[39] = test system: Mus musculus; test: Antiinflammatory activity in ICR mouse model of TPA-induced ear edema assessed as inhibition of ear inflammation at 20 uM,TOP for 30 mins followed by TPA addition and measured after 5 hrs; format: functional; conditions: 5.5 h, time 330 min
[40] = target: T1, Polyunsaturated fatty acid 5-lipoxygenase (Homo sapiens, UniProt P09917); test: Inhibition of 5-LOX in human neutrophils assessed as reduction in 5-HETE formation preincubated for 5 mins followed by arachidonic acid and A23187 addition and measured after 5 mins by RP-HPLC analysis; format: cell-based, Neutrophil
T1 sequence (P09917 whole entry): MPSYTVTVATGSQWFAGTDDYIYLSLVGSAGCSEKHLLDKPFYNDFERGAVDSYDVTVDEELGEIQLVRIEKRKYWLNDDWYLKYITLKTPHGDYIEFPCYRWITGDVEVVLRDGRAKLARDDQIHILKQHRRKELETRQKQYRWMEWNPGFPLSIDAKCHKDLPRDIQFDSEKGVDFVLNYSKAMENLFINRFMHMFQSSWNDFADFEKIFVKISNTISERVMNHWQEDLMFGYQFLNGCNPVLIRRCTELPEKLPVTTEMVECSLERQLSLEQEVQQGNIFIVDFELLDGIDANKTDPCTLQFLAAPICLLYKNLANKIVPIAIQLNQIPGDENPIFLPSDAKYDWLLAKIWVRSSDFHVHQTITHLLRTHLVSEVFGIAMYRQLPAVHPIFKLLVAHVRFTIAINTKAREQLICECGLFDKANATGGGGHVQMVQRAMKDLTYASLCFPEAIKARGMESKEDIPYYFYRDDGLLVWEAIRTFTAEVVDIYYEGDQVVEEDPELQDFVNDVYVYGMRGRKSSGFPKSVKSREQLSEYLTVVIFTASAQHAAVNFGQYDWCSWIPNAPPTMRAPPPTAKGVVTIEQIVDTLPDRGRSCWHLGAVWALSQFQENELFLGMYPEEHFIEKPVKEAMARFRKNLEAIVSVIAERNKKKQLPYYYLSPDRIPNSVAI

[41] = Inhibition of COX in bovine seminal vesicle assessed as reduction in PGE2 production using arachidonic acid as substrate; format: tissue-based, Bos taurus
[42] = test system: Zingiber officinale; test: Inhibition of prostaglandin biosynthesis in ginger; format: functional, organism-based
[43] = test system: RAW264.7; test: Antiinflammatory activity in mouse RAW264.7 cells assessed as inhibition of LPS-induced NO production for 24 hrs by colorimetric analysis; format: functional, cell-based; conditions: RAW264.7, 24 h
[44] = test system: Mus musculus; test: Antiinflammatory activity in TPA-induced ear edema ICR mouse model assessed as inhibition of ear inflammation at 1 ug, TOP for 30 mins followed by TPA addition and measured after 6 hrs; format: functional; conditions: dose 1 µg, time 390 min, 6.5 h
[45] = test system: Rattus norvegicus; test: Antiinflammatory activity in Wistar rat model of carrageenan-induced paw edema assessed as reduction in paw thickness at 10 mg/kg,po and measured after 5 hrs; format: functional; design: scale not given: the % may be the effect or the level left
[46] = test system: RAW264.7; test: Antiinflammatory activity in mouse RAW264.7 cells assessed as inhibition of KLA-induced TNFalpha expression at 0.06 mg/ml and measured after 24 hrs by ELISA; format: functional

Sequence of Nuclear factor NF-kappa-B complex (Homo sapiens) (P19838 whole entry, looked up): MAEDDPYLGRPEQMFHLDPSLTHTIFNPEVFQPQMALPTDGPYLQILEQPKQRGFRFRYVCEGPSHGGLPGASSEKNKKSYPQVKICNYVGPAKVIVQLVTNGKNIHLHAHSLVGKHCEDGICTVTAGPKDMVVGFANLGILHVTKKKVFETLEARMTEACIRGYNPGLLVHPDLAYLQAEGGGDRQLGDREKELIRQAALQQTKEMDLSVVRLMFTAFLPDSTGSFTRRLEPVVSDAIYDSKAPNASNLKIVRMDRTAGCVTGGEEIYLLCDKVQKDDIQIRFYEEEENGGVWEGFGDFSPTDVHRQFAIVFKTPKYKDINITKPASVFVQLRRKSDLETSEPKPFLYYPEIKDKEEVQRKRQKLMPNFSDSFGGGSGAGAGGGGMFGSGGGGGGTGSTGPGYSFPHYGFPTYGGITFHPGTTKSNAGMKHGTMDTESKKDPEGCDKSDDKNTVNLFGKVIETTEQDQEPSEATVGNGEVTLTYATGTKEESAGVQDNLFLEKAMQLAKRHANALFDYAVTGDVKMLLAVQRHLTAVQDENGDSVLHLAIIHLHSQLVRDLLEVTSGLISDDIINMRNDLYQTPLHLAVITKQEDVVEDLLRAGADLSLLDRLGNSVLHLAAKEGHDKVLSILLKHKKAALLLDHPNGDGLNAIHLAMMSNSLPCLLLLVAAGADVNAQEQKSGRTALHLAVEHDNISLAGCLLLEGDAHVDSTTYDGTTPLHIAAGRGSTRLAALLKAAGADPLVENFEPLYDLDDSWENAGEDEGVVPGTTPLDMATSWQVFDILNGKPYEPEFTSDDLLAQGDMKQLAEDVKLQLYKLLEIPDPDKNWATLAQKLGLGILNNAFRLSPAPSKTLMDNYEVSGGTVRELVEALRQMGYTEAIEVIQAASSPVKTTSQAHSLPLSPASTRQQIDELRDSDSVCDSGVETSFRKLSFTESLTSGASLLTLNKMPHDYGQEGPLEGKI
Sequence of Nuclear factor NF-kappa-B complex (Homo sapiens) (Q00653 whole entry, looked up): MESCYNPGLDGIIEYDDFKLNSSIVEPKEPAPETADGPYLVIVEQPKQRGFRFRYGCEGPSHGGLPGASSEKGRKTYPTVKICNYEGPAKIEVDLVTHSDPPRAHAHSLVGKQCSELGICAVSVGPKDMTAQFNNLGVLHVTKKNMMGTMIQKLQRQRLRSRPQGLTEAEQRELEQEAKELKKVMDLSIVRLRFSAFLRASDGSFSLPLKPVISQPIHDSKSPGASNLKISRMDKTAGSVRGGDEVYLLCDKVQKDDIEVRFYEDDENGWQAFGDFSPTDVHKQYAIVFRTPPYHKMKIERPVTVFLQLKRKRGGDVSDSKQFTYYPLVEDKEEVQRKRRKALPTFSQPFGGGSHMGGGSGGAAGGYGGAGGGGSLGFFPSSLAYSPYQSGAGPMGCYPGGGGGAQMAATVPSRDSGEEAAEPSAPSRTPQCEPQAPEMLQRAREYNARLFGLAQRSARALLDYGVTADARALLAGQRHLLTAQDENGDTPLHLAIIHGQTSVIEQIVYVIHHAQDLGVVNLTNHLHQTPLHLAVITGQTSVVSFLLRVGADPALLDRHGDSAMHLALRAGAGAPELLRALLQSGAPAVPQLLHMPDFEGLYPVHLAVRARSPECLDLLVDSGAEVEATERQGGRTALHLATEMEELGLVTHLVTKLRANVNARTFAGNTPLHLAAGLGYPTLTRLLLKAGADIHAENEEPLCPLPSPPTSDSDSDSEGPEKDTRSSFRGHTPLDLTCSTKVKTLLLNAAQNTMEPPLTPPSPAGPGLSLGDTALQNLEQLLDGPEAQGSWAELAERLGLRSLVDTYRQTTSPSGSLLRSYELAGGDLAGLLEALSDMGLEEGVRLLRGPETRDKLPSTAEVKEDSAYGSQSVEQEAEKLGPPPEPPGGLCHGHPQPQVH
Sequence of Nuclear factor NF-kappa-B complex (Homo sapiens) (Q04206 whole entry, looked up): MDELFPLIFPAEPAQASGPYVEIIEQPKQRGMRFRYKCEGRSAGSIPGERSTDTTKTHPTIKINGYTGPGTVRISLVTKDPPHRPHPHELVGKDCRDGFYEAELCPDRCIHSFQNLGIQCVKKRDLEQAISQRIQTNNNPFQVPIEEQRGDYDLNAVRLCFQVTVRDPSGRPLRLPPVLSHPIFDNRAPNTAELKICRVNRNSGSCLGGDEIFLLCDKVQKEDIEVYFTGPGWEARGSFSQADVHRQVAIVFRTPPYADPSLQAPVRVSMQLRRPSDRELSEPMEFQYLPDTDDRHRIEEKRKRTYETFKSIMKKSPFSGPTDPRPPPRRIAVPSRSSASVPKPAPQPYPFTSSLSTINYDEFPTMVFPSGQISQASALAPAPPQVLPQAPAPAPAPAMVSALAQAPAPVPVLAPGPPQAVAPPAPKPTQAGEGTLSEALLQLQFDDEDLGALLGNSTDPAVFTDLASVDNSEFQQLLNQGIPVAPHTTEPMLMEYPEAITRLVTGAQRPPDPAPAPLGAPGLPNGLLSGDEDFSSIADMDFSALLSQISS

IC50 [1]: 13.4 µM
IC50 [2]: 17.6 µM
IC50 [3]: 16.8 µM
IC50 [4]: 5.8 µM
IC50 [5]: 14.1 µM
IC50 [6]: 0.8 µM
IC50 [7]: 5 µM
IC50 [9]: 27.2 µg/mL (≈ 82.8 µM)
IC50 [10]: 25 µg/mL (≈ 76.1 µM)
IC50 [11]: > 100 µM
IC50 [12]: > 100 µM
IC50 [13]: > 100 µM
inhibition [23]: 29.5%
SMILES: O=C(/C=C/CCc1ccc(O)c(O)c1)CCc1ccc(O)c(O)c1 [DEHYDROHIRSUTANONOL]
IC50 [8]: 39 µM
inhibition at […] [14]: 33%
inhibition at […] [15]: 46%
inhibition at […] [16]: 43%
inhibition at […] [17]: 37%
inhibition at […] [18]: 39%
inhibition at […] [19]: 40%
inhibition at […] [20]: 51%
inhibition at […] [21]: 39%
inhibition at […] [22]: 49%
inhibition at […] [24]: 37%
inhibition (INH) [25]: 51%
inhibition (INH) [26]: 37%
inhibition (INH) [27]: 60%
inhibition (INH) [28]: 74%
inhibition (INH) [29]: 57%
inhibition (INH) [30]: 61%
inhibition (INH) [31]: 62%
inhibition (INH) [32]: 73%
inhibition at 5 µM [33]: 73.4%

SMILES: Oc1ccc(CCC(O)CC/C=C/c2ccccc2)cc1 (stereo unspecified)
inhibition at 1 µg/mL [34]: 19%
inhibition at 1 µg/mL [35]: 20%
inhibition at 1 µg/mL [36]: 58%

IC50 [37]: 22.8 µM
SMILES: COc1cc(CCC(O)CC(O)CCc2ccc(O)c(O)c2)ccc1O (stereo unspecified)
inhibition at 25 µM [38]: 32%

SMILES: Oc1ccc(CCC(O)CC/C=C/c2ccccc2)cc1O (stereo unspecified)
inhibition at 1 µg/mL [34]: 44%
inhibition at 1 µg/mL [35]: 30%
inhibition at 1 µg/mL [36]: 64%

IC50 [40]: 5.4 µM
IC50 [41]: 16 µM
IC50 [42]: 0.5 µM
SMILES: COc1cc(CCC(=O)CCCCc2ccccc2)ccc1O
inhibition in vivo at 20 µM [39]: 43%

IC50 [43]: 0.66 µM
SMILES: Oc1ccc(CCC(O)/C=C/C=C/c2ccccc2)cc1 (stereo unspecified)

IC50 [37]: 6.8 µM
SMILES: O=C(/C=C/CCc1ccccc1)CCc1ccccc1
ID50 [44]: 2.7 µmol
Activity [45]: 4.7%
inhibition at 25 µM [38]: 71%
inhibition at 60 µg/mL [46]: 38%
